The values that follow come from patent US11034692B1 (Genentech, Inc., priority 2017, dated 2021).

Molecules are shown by their SMILES.

The assay has as its target HPK1. Kind of assay: HPK1 Lantha Binding Assay ("Lanth"). To be noted: Table B1-1, read-out: HPK1 Ki (μM) (Lanth). The essentials:
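Compounds in an 11-point 5-fold series were preincubated 1 h at 23 C with 2 nM kinase plus 2 nM Eu-anti-GST antibody. Then 15 nM Tracer222 was added for another hour, and time-resolved FRET was read at 665/615 nm. Ki values come from a Morrison tight-binding model that uses the tracer Kd.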
A word on the Ki: it is a measure of affinity in units of concentration, obtained from inhibition or displacement. As for `Cc1ccncc1-c1cc2cc(Nc3ccc(CS(N)(=O)=O)cc3)ncc2c(N)n1` [Compound 264, (4-[[8-Amino-6-(4-methylpyridin-3-yl)-2,7-naphthyridin-3-yl]amino]phenyl)methanesulfonamide], the Ki is 0.134 nM.

In the case of `Cc1ccncc1-c1cc2cc(Nc3ccc(N4CCNCC4=O)cc3)ncc2c(N)n1` [Compound 265, 1-(4-[[8-amino-6-(4-methylpyridin-3-yl)-2,7-naphthyridin-3-yl]amino]phenyl)piperazin-2-one], the inhibition constant (Ki) came out at 0.249 nM.

On to `Cc1ccncc1-c1cc2cc(Nc3cnn(C(C)(C)CO)c3)ncc2c(N)n1` [Compound 266, 2-(4-[[8-amino-6-(4-methylpyridin-3-yl)-2,7-naphthyridin-3-yl]amino]-1H-pyrazol-1-yl)-2-methylpropan-1-ol], for which the inhibitory constant (Ki) came to 0.118 nM.

As for `Cc1ccncc1-c1nc(N)c2cnc(NC(=O)[C@@H]3C[C@H]3CC#N)cc2c1Cl` [Compound 269, (1R,2S)—N-[8-amino-5-chloro-6-(4-methylpyridin-3-yl)-2,7-naphthyridin-3-yl]-2-(cyanomethyl)cyclopropane-1-carboxamide], the Ki was 2.3 nM.

As to `Cc1ccncc1-c1nc(N)c2cnc(NC(=O)[C@H]3C[C@@H]3CC#N)cc2c1Cl` [Compound 270, (1S,2R)—N-[8-amino-5-chloro-6-(4-methylpyridin-3-yl)-2,7-naphthyridin-3-yl]-2-(cyanomethyl)cyclopropane-1-carboxamide], the Ki is 0.116 nM.

For the compound `CCc1c(-c2cnccc2C)nc(N)c2cnc(NC(=O)[C@@H]3C[C@H]3CC#N)cc12` [Compound 272, (1R,2S)—N-[8-amino-5-ethyl-6-(4-methylpyridin-3-yl)-2,7-naphthyridin-3-yl]-2-(cyanomethyl)cyclopropane-1-carboxamide], the Ki came to 0.139 nM.

Turning to `Cc1ccncc1-c1cc2cc(Nc3cnn([C@@H](C)C#N)c3)ncc2c(N)n1` [Compound 274, (S)-2-(4-(8-amino-6-(4-methylpyridin-3-yl)-2,7-naphthyridin-3-ylamino)-1H-pyrazol-1-yl)propanenitrile], the Ki came to 0.297 nM.

In the case of `Cc1ccc(O)cc1-c1cc2cc(NC(=O)[C@H]3C[C@@H]3c3cnn(C)c3)ncc2c(N)n1` [Compound 286, (1S,2S)—N-[8-amino-6-(5-hydroxy-2-methylphenyl)-2,7-naphthyridin-3-yl]-2-(1-methyl-1H-pyrazol-4-yl)cyclopropane-1-carboxamide], the Ki amounted to 1.82 nM.

As to `Cc1ccc(O)cc1-c1cc2cc(NC(=O)[C@@H]3C[C@H]3c3cnn(C)c3)ncc2c(N)n1` [Compound 287, (1R,2R)—N-[8-amino-6-(5-hydroxy-2-methylphenyl)-2,7-naphthyridin-3-yl]-2-(1-methyl-1H-pyrazol-4-yl)cyclopropane-1-carboxamide], the Ki worked out at 0.078 nM.

For `COc1ccc(C)c(-c2cc3cc(NC(=O)[C@H]4C[C@@H]4c4cnn(C)c4)ncc3c(N)n2)c1` [Compound 288, (1S,2S)—N-[8-amino-6-(5-methoxy-2-methylphenyl)-2,7-naphthyridin-3-yl]-2-(1-methyl-1H-pyrazol-4-yl)cyclopropane-1-carboxamide], the inhibition constant (Ki) turned out to be 6.19 nM.

`COc1ccc(C)c(-c2cc3cc(NC(=O)C4C[C@H]4c4cnn(C)c4)ncc3c(N)n2)c1` (stereo partly drawn) [Compound 289, (1R,2R)—N-[8-amino-6-(5-methoxy-2-methylphenyl)-2,7-naphthyridin-3-yl]-2-(1-methyl-H-pyrazol-4-yl)cyclopropane-1-carboxamide]: the Ki was 7.39 nM.

For `Cc1ccc(C(=O)N(C)C)cc1-c1cc2cc(NC(=O)[C@H]3C[C@@H]3c3cnn(C)c3)ncc2c(N)n1` [Compound 290, 3-(1-amino-6-[[(1S,2S)-2-(1-methyl-1H-pyrazol-4-yl)cyclopropane]amido]-2,7-naphthyridin-3-yl)-N,N,4-trimethylbenzamide], the inhibitory constant (Ki) amounted to 3.36 nM.
